Source: patent publication US6391891B1, “Bicyclic compounds as ligands for 5-HT1 receptors” (SmithKline Beecham plc, priority 1997, dated 2002)

Tests used:
5-HT1D receptors = biological target: T1, 5-HT1D receptors (Homo sapiens, UniProt P28221); assay: 5-HT1D receptor radioligand binding assay ([3H]-5-HT); conditions: CHO cells expressing 5-HT1D receptors; [3H]-5-HT 4 nM; 37° C., 45 minutes; read-out: pKi at 5-HT1D receptors (converted)
T1 construct: expressed in transfected cells; host or cells: CHO cells
T1 sequence (P28221 whole entry): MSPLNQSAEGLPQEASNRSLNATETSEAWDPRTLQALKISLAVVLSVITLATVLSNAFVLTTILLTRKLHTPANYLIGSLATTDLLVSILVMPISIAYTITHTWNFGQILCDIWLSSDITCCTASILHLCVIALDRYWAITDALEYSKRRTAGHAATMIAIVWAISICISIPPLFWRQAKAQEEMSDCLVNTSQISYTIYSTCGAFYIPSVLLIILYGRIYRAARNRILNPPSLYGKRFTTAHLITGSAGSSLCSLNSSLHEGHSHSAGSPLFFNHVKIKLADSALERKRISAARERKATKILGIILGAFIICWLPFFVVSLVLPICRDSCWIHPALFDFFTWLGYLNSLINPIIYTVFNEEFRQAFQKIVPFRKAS
Procedure: (§1) The affinities of the compounds of this invention for the 5HT1A, 5-HT1B and 5-HT1D receptors can be determined by the following radioligand binding assay. HEK 293 cells expressing 5-HT1A receptors (4×10^7/ml) are homogenised in Tris buffer and stored in 1 ml aliquots. CHO cells expressing 5-HT1B receptors (4×10^7 cells/ml) are homogenised in Tris buffer and stored in 1.5 ml aliquots. CHO cells expressing 5-HT1D receptors (0.563×10^8/ml) are homogenised in Tris buffer and stored in 1 ml aliquots. 0.4 ml of a cell suspension is incubated with [^3H]-5-HT (4 nM) for 5-HT1B/1D receptors and [^3H]-8-OH DPAT (1 nM) for 5-HT1A receptors in Tris Mg HCl buffer (pH 7.7) and test drug, at 37° C. for 45 minutes. Each test drug is tested at 10 concentrations (0.01 mM to 0.3 nM final concentration), with non-specific binding defined using 0.01 mM 5-HT. The total assay volume is 0.5 ml. Incubation is stopped by rapid filtration using a Packard Filtermate (filters pre-soaked in 0.3% polyethylenimine) and radioactivity measured by Topcount scintillation counting. pKi values are calculated from the IC50 generated by an iterative least squares curve fitting programme.
(§2) The affinities of the compounds of this invention were determined by methods described above.
(§3) 5-HT1A, 5-HT1B and 5-HT1D Receptor Binding

5-HT1A receptors = biological target: T2, 5-HT1A receptors (Homo sapiens, UniProt P08908); assay: 5-HT1A receptor radioligand binding assay ([3H]-8-OH DPAT); conditions: HEK 293 cells expressing 5-HT1A receptors; [3H]-8-OH DPAT 1 nM; 37° C., 45 minutes; read-out: pKi at 5-HT1A receptors (converted)
T2 construct: expressed in transfected cells; host or cells: HEK 293 cells
T2 sequence (P08908 1-422): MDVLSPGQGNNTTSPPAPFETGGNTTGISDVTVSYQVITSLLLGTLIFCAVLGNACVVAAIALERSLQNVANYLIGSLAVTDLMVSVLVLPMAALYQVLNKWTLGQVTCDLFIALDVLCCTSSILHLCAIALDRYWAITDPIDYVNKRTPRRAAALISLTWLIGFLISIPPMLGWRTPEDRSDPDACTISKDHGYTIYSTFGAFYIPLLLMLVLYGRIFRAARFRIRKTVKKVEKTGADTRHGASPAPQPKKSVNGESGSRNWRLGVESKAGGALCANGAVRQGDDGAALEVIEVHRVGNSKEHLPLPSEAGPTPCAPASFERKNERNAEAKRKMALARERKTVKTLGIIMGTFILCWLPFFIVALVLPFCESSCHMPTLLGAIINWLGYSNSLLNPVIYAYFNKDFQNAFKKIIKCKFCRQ
Procedure: as §1, §2, §3

5-HT1B receptors = biological target: T3, 5-HT1B receptors (Homo sapiens, UniProt P28222); assay: 5-HT1B receptor radioligand binding assay ([3H]-5-HT); conditions: CHO cells expressing 5-HT1B receptors; [3H]-5-HT 4 nM; 37° C., 45 minutes; read-out: pKi at 5-HT1B receptors (converted)
T3 construct: expressed in transfected cells; host or cells: CHO cells
T3 sequence (P28222 whole entry): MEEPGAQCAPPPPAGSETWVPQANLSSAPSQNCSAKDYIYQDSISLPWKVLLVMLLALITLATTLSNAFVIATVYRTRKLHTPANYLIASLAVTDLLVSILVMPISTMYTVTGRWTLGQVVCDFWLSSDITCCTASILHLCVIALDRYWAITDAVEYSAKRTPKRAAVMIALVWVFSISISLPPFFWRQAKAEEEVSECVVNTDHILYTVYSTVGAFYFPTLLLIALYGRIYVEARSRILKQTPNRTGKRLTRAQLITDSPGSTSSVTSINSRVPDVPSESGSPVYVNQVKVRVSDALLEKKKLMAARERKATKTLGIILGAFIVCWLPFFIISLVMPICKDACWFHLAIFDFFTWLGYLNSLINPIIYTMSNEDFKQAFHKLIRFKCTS
Procedure: as §1, §2, §3

Measured: Ki

CN1CCC(c2c[nH]c3ccc(NC(=O)Nc4ccc(-c5ccncc5)c5ccccc45)cc23)CC1 [Example 1, N-[3-(1-Methylpiperdin-4-yl)indol-5-yl]-N′-[4-(pyridin-4-yl)naphth-1-yl]-urea]
< 10 nM: all assays above

CN1CCC(c2c[nH]c3ccc(NC(=O)Nc4ccc(-c5ccncc5)c(Cl)c4Cl)cc23)CC1 [Example 3, N-[2,3-Dichloro-4-(pyridin-4-yl)phenyl]-N′-[3-(1-methylpiperidin-4-yl)indol-5-yl]-urea]
< 10 nM: all assays above

CN1CCC(c2c[nH]c3ccc(NC(=O)Nc4ccc(-c5ccncc5)cc4Cl)cc23)CC1 [Example 4, N-[2-Chloro-4-(pyridin-4-yl)phenyl]-N′-[3-(1-methylpiperidin-4-yl)indol-5-yl]-urea]
< 10 nM: all assays above

CN1CCC(c2c[nH]c3ccc(NC(=O)Nc4ccc(-c5ccncc5)c(Cl)c4)cc23)CC1 [Example 8, N-[3-Chloro-4-(pyridin-4-yl)phenyl]-N′-[3-(1-methylpiperidin-4-yl)indol-5-yl]-3-urea]
< 10 nM: all assays above

CN1CC=C(c2csc3ccc(NC(=O)Nc4ccc(-c5ccncc5)c(Cl)c4)cc23)CC1 [Example 9, N-[3-Chloro-4-(pyridin-4-yl)phenyl]-N′-[3-(1-methyl-1,2,5,6-tetrahydropyridin-4-yl)benzo[b]thiophen-5-yl]-urea]
< 10 nM: all assays above

CN1CC=C(c2csc3ccc(NC(=O)Nc4ccc(-c5ccncc5)c5ccccc45)cc23)CC1 [Example 10, N-[3-(1-Methyl-1,2,5,6-tetrahydropyridin-4-yl)benzo[b]thiophen-5-yl]-N′-[4-(pyridin-4-yl)naphth-1-yl]-urea]
< 10 nM: all assays above

CN1CCC(c2csc3ccc(NC(=O)Nc4ccc(-c5ccncc5)c5ccccc45)cc23)CC1 [Example 12, N-[3-(1-Methylpiperidin-4-yl)benzo[b]thiophen-5-yl]-N′-[-4-(pyridin-4-yl)naphth-1-yl]-urea]
< 10 nM: all assays above
